Reference: patent US20220170930A1, “METHOD FOR SCREENING COMPOUND FOR TREATING OR PREVENTING POLYQ-RELATED NEURODEGENERATIVE DISEASES” (FUDAN UNIVERSITY, priority 2019, published 2022)

What was measured:
LC3B [1] = target: T1, LC3B (Homo sapiens, UniProt Q9GZQ8); test: MST affinity with LC3B; type: binding
T1 construct: His8 (N, cleaved yes); GST (from pGEX-6P1) (N, cleaved yes); made in house; host or cells: E. coli BL21(DE3)pLsyS

wtHTT = target: T2, wtHTT (Mus musculus, UniProt P42859); test: Western-blot wtHTT level in primary cultured cortical neurons; type: cell-based; settings: Hdh^Q7/Q7 cortical neurons, 2 days
T2 construct: endogenous in cells; host or cells: primary cortical neurons of newborn Hdh Q140/Q7 and Hdh Q7/Q7 mice
Procedure: (§1) Primary cultured cortical neurons: The brains of Hdh^Q140/Q7 and Hdh^Q7/Q7 newborn mice (P0) were dissected, digested, dissociated, and cultured.
(§2) (1) The primary cultured Hdh^Q140/Q7 and Hdh^Q7/Q7 mouse cortical neuron cells were treated with the compound for 2 days.

HTTexon1-Q25-MBP = target: T3, HTTexon1-Q25-MBP (Homo sapiens, UniProt P42858, DUP35-38); test: OI-RD affinity with HTTexon1-Q25; type: binding
T3 construct: made in house; host or cells: mammalian expression vector pTT5SH8Q2
Procedure: OI-RD images before and after incubation with the target protein was obtained following the method in (1).
(§3) The difference images of the above steps (1), (2), (3) (the image after incubation minus the image before incubation) was analyzed respectively.
(§4) Each compound was printed in triplicates on the microarray. 01-RD was used to measure the affinity reaction parameters of compounds with HTTexon1-Q72 and HTTexon1-Q25.

[2] = target: T4, mutant ATXN3 protein (ATXN3-Q74) (Homo sapiens, UniProt P54252, G306R/INS305QQQQQQQQQQQQQQQQQQQQQQQQQQQQQQQQQQQQQQQQQQQQQQQQQQQQQQQQQQQQQQQQ/V212M); test: Western-blot mutant ATXN3 level in SCA3 patient fibroblasts; type: cell-based; settings: 100 nM (compound 4: 50 nM), 2 days
T4 construct: endogenous in cells; host or cells: SCA3 patient fibroblasts (Q74)
Procedure: (§5) Then the levels of mutant ATXN3 protein (ATXN3-Q74, SEQ ID NO: 2) and wild-type ATXN3 protein (ATXN3-Q27, SEQ ID NO: 7) were determined by Western-blots (FIG. 26). […] Therefore, the compound of the present invention can be used to treat SCA3.

[3] = target: T5, mutant ATXN1 protein (His-ATXN1-Q92) (Homo sapiens, UniProt P54253, INS208QQQQQQQQQQQQQQQQQQQQQQQQQQQQQQQQQQQQQQQQQQQQQQQQQQQQQQQQQQQQQQQQQQQQQQQQQQQQQQQQ); test: HTRF mutant ATXN1 level in His-ATXN1-Q92-expressing cells; type: cell-based; settings: 100 nM, 2 days, anti-His-Tb/MW1-D2
T5 construct: expressed in transfected cells; host or cells: HEK293T cells (ATCC, CRL-3216)

His-ATXN1-Q92 = target: T6, His-ATXN1-Q92 (Homo sapiens, UniProt P54253, INS208QQQQQQQQQQQQQQQQQQQQQQQQQQQQQQQQQQQQQQQQQQQQQQQQQQQQQQQQQQQQQQQQQQQQQQQQQQQQQQQQ); test: OI-RD affinity screening with His-ATXN1-Q92; type: binding; settings: OI-RD difference images
T6 construct: made in house; host or cells: HEK293T cells (ATCC, CRL-3216)
Procedure: (1) PolyQ-ATXN1 cDNA (where polyQ is Q92) was synthesized de novo and subcloned into pcDNA vector. It transfected into HEK293T cells (ATCC, CRL-3216) to obtain cells expressing His-ATXN1-Q92 (SEQ ID NO: 3 with a His tag at the N-terminal).
(2) The His-ATXN1-Q92 expressed in (1) was purified to obtain ATXN1 with abnormally expanded polyQ.
To identify compound(s) that can bind to ATXN1 with abnormally expanded polyQ, screening was conducted using a method similar to step (1) of 1.1, except for that the target protein HTTexon1-Q72-MBP in step (1) of 1.1 was replaced with His-ATXN1-Q92.

[4] = target: T7, full-length mHTT (flHTT-Q73) (Homo sapiens, UniProt P42858, INS38QQQQQQQQQQQQQQQQQQQQQQQQQQQQQQQQQQQQQQQQQQQQQQQQQQQQ); test: OI-RD affinity reaction parameters with flHTT-Q73; type: binding
T7 construct: LC3B, full-length mHTT (flHTT-Q73) and full-length HTT-Q23 (flHTT-Q23); protein A (N, cleaved yes); made in house; host or cells: human embryonic kidney E293 cells
Description: (§6) Each compound was printed in triplicates on the microarray. 01-RD was used to measure the affinity reaction parameters of the compound with LC3B, full-length mHTT (flHTT-Q73) and full-length HTT-Q23 (flHTT-Q23).

mHTT [5] = target: T8, mHTT (Homo sapiens, UniProt P42858, INS38QQQQQQQQQQQQQQQQQQQQQQQQQQ); test: HTRF mHTT level in HD patient iPSC-derived neurons; type: cell-based; settings: iPSC-derived neurons (Q47)
T8 construct: endogenous in cells; host or cells: HD patient iPSC-derived neurons (Q47)

HTTexon1-Q72-MBP = target: T9, HTTexon1-Q72-MBP (Homo sapiens, UniProt P42858, INS38QQQQQQQQQQQQQQQQQQQQQQQQQQQQQQQQQQQQQQQQQQQQQQQQQQQ); test: OI-RD affinity screening and affinity reaction parameters with HTTexon1-Q72; type: binding
T9 construct: made in house; host or cells: mammalian expression vector pTT5SH8Q2
Procedure: Each compound was printed in duplicate on the microarray. The compound not fixed on the surface of the chip was washed away. The chip was sealed and cleaned. 01-RD microscope was applied to scan the images. […] The chips are cleaned and scanned.
as §3, §4

[6] = target: T10, wild-type ATXN3 protein (ATXN3-Q27) (Homo sapiens, UniProt P54252, G306R/INS305QQQQQQQQQQQQQQQQQ/V212M); test: Western-blot wild-type ATXN3 level in fibroblasts; type: cell-based; settings: 100 nM (compound 4: 50 nM), 2 days
T10 construct: endogenous in cells; host or cells: wild-type fibroblasts (Q27) and/or the normal allele in SCA3 patient fibroblasts
Procedure: as §5

flHTT-Q73 = target: T11, flHTT-Q73 (Homo sapiens, UniProt P42858, INS38QQQQQQQQQQQQQQQQQQQQQQQQQQQQQQQQQQQQQQQQQQQQQQQQQQQQ); test: MST affinity with flHTT-Q73; type: binding
T11 construct: LC3B, full-length mHTT (flHTT-Q73) and full-length HTT-Q23 (flHTT-Q23); protein A (N, cleaved yes); made in house; host or cells: human embryonic kidney E293 cells

LC3B [7] = target: T1, LC3B; test: OI-RD affinity with LC3B; type: binding
Procedure: 01-RD images before and after incubation with the target protein was obtained following the method in (1).
as §3, §6

mHTT [8] = test: Western-blot mHTT level in primary cultured cortical neurons; type: cell-based, mouse; settings: 2 days
Procedure: as §1, §2

MBP-ATXN3-Q68 [9] = target: T12, MBP-ATXN3-Q68 (Homo sapiens, UniProt P54252, INS305QQQQQQQQQQQQQQQQQQQQQQQQQQQQQQQQQQQQQQQQQQQQQQQQQQQQQQQQQQ); test: MST affinity with MBP-ATXN3-Q68
Procedure: (§9) The affinity of the compound with full-length HTT and LC3B was verified with micro thermophoresis (MST) using Monolith NT.115 instrument from NanoTemper Technologies. The reaction buffer was 20 mM HEPES, pH 7.4, 150 mM NaCl.

MBP-ATXN3-Q28 [10] = target: T13, MBP-ATXN3-Q28 (Homo sapiens, UniProt P54252, INS305QQQQQQQQQQQQQQQQQQ); test: OI-RD affinity screening with MBP-ATXN3-Q28; type: binding; settings: OI-RD difference images
T13 construct: His8 with TEV protease cleavage site; made in house; host or cells: Escherichia coli Rosetta(DE3)pLsyS
Procedure: (§7) Screening was conducted using a method similar to 1.1, except for that the target protein HTTexon1-Q72-MBP in step (1) of 1.1 was replaced with MBP-ATXN3-Q68 and the target protein HTTexon1-Q25-MBP in step (2) of 1.1 was replaced with MBP-ATXN3-Q28, to obtain compounds that can selectively bind to ATXN3 with abnormally expanded polyQ (MBP-ATXN3-Q68).

MBP-ATXN3-Q68 [11] = target: T12, MBP-ATXN3-Q68; test: OI-RD affinity screening with MBP-ATXN3-Q68; type: binding; design: His8 with TEV protease cleavage site; made in house; host or cells: Escherichia coli Rosetta(DE3)pLsyS; settings: OI-RD difference images
Procedure: as §7

[12] = test system: proteins with expanded polyglutamine (polyQ-GFP); test: OI-RD affinity screening with polyQ-GFP proteins; type: binding; settings: OI-RD difference images
Procedure: (§8) To identify compound(s) that can selectively bind to proteins containing expanded polyglutamine, screening was conducted using a method similar to 1.1, except for that the target protein HTTexon1-Q72-MBP in step (1) of 1.1 was replaced with the polyQ-GFP protein prepared in 10.1, and the target protein HTTexon1-Q25-MBP in step (2) of 1.1 was replaced with GFP.

[13] = test system: polyQ-GFP (Q72-GFP, Q25-GFP); test: polyQ-GFP level in HEK293T cells by Incucyte fluorescence counting; type: cell-based; settings: Q72-GFP vs Q25-GFP expressing HEK293T cells, 100 nM compound 1, 100 nM compound 3 or 50 nM compound 4, 2 days
Description: (1) PolyQ-GFP cDNA sequence (expressing Met-polyQ-GFP, wherein polyQ was Q72 or Q25) was synthesized de novo and subcloned into pcDNA vector. It was transfected into HEK293T cells (ATCC, CRL-3216) through forward transfection to obtain Q72-GFP expressing cells and Q25-GFP expressing cells, respectively. And the same method was used to obtain cells expressing Q53-GFP, cells expressing Q46-GFP, and cells expressing Q38-GFP.
The Q72-GFP expressing cells and Q25-GFP expressing cells obtained in step (1) of 10.1 were used. […] Then the level of polyQ-GFP was measured by Incucyte fluorescence counting (FIG. 25).

Q25-GFP [14] = test: MST affinity with Q25-GFP
Procedure: as §9

MBP-ATXN3-Q28 [15] = target: T13, MBP-ATXN3-Q28; test: MST affinity with MBP-ATXN3-Q28; type: binding
Procedure: Protein concentration was 500 nM.

mHTT [16] = test: Intracerebroventricular injection, mHTT and wtHTT in cortices of HD mice; type: in vivo, mouse; settings: mouse, in vivo
Procedure: Experimental animals: Hdh^Q140/Q7 mice (3 months old), 4 in each group.
Each test includes three repetitions for each sample, and the mean values was calculated (FIG. 16).

GFP = test: OI-RD affinity screening with GFP; type: binding; settings: OI-RD difference images
Procedure: as §8

Q25-GFP [17] = test: OI-RD affinity screening with Q25-GFP; type: binding; settings: OI-RD difference images
Description: (1) PolyQ-GFP cDNA sequence (expressing Met-polyQ-GFP, wherein polyQ was Q72 or Q25) was synthesized de novo and subcloned into pcDNA vector. […] And the same method was used to obtain cells expressing Q53-GFP, cells expressing Q46-GFP, and cells expressing Q38-GFP.

T9 sequence (P42858 with tags, fused parts or gaps, stated change not applied): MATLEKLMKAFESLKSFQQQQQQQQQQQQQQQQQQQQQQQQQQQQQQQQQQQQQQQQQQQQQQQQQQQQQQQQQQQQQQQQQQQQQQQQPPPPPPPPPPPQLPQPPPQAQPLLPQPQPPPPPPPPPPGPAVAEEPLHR
T7 sequence (P42858 with tags, fused parts or gaps with the stated changes): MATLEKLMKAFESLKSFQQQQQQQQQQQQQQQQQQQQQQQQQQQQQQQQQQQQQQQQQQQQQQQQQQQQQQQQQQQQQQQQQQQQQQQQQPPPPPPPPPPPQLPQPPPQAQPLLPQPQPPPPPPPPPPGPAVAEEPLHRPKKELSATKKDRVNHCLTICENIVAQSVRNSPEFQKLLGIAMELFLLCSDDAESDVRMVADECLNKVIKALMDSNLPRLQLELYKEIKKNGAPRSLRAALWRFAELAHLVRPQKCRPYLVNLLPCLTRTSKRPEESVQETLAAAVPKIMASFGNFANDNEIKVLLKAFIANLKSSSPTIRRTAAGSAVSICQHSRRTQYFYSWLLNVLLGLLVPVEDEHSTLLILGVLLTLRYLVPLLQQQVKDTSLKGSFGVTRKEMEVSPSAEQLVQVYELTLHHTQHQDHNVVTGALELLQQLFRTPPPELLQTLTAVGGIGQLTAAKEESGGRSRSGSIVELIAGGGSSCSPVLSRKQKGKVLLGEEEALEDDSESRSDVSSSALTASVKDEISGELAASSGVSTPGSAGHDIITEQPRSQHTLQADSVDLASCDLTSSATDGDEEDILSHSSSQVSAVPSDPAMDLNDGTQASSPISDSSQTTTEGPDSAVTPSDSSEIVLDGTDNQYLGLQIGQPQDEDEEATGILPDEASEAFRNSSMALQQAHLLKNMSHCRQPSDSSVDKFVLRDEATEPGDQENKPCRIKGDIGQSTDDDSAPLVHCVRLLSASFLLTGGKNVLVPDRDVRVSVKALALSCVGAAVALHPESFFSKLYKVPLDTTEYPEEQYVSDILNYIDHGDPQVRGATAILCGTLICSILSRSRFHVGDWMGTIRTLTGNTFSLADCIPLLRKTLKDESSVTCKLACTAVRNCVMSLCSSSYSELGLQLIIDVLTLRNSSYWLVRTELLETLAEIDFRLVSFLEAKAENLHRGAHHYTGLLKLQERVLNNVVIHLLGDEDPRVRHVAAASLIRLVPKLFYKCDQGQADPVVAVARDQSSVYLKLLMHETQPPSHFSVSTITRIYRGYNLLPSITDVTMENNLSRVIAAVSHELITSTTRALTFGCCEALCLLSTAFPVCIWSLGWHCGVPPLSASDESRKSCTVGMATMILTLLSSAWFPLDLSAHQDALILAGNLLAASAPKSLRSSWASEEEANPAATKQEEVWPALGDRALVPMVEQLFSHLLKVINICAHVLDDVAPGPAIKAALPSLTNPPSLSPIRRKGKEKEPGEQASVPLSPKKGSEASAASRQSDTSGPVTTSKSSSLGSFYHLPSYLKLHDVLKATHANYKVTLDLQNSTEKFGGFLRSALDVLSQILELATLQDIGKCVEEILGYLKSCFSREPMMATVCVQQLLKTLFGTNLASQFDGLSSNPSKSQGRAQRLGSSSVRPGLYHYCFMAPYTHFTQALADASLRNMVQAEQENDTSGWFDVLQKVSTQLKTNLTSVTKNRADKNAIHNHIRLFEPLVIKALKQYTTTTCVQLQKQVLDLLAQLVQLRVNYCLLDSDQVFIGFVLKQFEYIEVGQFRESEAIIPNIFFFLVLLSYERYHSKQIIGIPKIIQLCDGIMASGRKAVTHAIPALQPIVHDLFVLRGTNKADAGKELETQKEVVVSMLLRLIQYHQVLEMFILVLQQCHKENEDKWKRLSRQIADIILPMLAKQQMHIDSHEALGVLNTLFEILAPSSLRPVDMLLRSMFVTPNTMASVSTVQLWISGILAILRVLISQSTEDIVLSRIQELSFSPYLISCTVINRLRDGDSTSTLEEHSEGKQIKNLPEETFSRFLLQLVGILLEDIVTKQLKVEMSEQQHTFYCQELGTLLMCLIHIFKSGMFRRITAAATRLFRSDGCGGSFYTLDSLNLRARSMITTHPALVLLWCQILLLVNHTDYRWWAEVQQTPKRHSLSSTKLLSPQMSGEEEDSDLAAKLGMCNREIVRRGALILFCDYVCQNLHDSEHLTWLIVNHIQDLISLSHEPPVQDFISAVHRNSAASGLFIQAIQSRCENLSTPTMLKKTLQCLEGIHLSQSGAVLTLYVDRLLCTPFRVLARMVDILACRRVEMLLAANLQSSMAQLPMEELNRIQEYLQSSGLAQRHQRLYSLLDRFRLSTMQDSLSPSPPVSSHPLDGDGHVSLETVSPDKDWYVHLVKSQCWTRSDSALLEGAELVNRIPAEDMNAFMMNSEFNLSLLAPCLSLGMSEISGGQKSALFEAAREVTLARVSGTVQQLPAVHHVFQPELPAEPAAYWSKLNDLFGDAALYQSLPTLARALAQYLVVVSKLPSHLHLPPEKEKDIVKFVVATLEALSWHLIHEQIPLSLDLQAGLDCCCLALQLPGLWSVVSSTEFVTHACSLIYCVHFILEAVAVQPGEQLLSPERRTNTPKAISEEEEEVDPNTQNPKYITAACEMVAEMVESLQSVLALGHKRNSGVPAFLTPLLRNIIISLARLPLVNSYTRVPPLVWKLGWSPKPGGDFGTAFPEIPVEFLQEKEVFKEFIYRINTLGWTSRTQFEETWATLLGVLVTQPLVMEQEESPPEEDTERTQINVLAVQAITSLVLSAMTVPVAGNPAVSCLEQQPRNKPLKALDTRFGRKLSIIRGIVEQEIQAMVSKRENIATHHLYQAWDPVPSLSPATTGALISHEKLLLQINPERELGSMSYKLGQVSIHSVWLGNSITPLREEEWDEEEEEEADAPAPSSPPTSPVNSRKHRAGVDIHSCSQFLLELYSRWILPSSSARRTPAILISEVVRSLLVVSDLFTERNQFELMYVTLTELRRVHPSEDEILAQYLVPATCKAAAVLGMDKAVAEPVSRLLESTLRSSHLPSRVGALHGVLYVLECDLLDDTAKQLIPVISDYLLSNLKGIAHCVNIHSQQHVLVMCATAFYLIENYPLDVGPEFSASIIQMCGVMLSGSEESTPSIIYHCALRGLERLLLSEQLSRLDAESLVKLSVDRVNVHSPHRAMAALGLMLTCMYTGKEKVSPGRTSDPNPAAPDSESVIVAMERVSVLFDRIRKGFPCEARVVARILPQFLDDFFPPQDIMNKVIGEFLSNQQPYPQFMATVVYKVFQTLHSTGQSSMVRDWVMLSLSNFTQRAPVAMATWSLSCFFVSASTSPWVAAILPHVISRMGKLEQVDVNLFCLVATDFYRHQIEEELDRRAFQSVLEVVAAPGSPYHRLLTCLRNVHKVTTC
T13 sequence (P54252 with tags, fused parts or gaps isoform P54252-4 with the stated changes): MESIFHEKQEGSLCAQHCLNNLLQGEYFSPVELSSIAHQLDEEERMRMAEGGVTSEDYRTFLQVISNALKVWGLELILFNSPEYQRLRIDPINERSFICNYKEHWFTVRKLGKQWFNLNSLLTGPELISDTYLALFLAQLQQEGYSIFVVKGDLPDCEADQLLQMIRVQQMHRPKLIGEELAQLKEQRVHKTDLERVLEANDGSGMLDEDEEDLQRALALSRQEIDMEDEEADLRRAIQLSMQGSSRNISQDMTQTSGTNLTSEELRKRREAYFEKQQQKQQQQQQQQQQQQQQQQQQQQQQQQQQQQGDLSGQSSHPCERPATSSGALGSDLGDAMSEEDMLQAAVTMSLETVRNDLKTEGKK
T4 sequence (P54252 with tags, fused parts or gaps isoform P54252-1 with the stated changes): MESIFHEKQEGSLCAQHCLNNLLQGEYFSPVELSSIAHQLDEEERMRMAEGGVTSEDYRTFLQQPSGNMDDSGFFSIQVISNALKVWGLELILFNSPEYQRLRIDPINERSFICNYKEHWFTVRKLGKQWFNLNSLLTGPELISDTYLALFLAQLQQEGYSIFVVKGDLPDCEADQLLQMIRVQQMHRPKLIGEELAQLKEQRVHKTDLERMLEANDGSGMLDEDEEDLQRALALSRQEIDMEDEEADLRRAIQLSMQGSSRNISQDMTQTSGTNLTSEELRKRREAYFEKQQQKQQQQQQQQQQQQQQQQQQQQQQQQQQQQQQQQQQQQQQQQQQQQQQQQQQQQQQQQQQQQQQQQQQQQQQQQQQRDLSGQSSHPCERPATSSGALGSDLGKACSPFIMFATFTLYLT
T10 sequence (P54252 with tags, fused parts or gaps isoform P54252-1 with the stated changes): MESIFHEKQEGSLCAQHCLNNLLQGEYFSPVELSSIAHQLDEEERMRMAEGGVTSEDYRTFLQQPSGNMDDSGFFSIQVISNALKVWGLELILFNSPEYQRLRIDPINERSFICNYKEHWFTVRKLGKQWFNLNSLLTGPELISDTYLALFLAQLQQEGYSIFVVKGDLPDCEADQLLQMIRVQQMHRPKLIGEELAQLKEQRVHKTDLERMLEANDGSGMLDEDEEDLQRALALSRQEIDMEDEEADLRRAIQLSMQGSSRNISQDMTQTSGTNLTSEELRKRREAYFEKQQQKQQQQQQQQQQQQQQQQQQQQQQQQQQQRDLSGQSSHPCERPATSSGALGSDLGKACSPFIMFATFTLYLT
T12 sequence (P54252 with tags, fused parts or gaps isoform P54252-4 with the stated changes): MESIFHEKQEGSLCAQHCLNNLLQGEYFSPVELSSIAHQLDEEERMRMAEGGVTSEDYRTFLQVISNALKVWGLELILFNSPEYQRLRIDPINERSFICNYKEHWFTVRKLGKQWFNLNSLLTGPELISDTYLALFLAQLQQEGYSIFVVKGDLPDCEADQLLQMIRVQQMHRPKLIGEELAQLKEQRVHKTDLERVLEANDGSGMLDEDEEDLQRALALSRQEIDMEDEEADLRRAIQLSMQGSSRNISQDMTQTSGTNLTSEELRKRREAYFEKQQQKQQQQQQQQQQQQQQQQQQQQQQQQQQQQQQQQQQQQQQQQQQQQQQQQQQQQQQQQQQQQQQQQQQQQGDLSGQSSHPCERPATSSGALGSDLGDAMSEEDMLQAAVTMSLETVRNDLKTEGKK
T3 sequence (P42858 with tags, fused parts or gaps DUP35-38): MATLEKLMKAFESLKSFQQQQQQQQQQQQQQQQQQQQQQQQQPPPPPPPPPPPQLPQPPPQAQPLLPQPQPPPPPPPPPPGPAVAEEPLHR
T11 sequence (P42858 with tags, fused parts or gaps with the stated changes): as the sequence (P42858 with tags, fused parts or gaps with the stated changes) above

Structure (SMILES): Cc1ccc(C(=O)N(CCCN)[C@@H](c2nc3cc(Cl)ccc3c(=O)n2Cc2ccccc2)C(C)C)cc1 [compound 2, ispinesib]
- Kd (LC3B [1]): 3.1 µM
- wtHTT levels (wtHTT): did not reduce wtHTT levels
- binding to HTTexon1-Q25 (HTTexon1-Q25-MBP): do not bind
- mutant ATXN3 protein level [2]: A decrease in mutant ATXN3 protein level was observed
- level of mutant ATXN1 protein (His-ATXN1-Q92) [3]: Decreased levels of mutant ATXN1 were observed
- binding to His-ATXN1-Q92 (His-ATXN1-Q92): can bind
- Kd [4]: 322 nM
- Koff ([4]; OI-RD, flHTT-Q73): 0.0207 min⁻¹
- Kon ([4]; OI-RD, flHTT-Q73): 6.43e-05 min/nM
- mHTT levels (mHTT [5]; 2B7/MW1): Decreased mHTT levels were observed
- mHTT levels (mHTT [5]; presence of the autophagy inhibitor NH4Cl): this effect was not observed
- Kd (HTTexon1-Q72-MBP): 29.2 nM
- binding to HTTexon1-Q72 (HTTexon1-Q72-MBP; OI-RD difference images): can bind
- Koff (HTTexon1-Q72-MBP; OI-RD, HTTexon1-Q72): 0.00623 min⁻¹
- Kon (HTTexon1-Q72-MBP; OI-RD, HTTexon1-Q72): 0.000213 min/nM
- wild-type ATXN3 protein level [6]: no decrease in wild-type ATXN3 protein level was observed
- Kd (flHTT-Q73): 130 nM
- Kd (LC3B [7]): 238 nM
- binding to LC3B (LC3B [7]; OI-RD difference images): can bind
- Koff (LC3B [7]; OI-RD, LC3B): 0.00586 min⁻¹
- Kon (LC3B [7]; OI-RD, LC3B): 2.46e-05 min/nM
- concentration range in which the effect of selectively reducing mHTT levels was observed (mHTT [8]): 30 to 100 nM
- preferred concentration for selectively reducing mHTT levels (mHTT [8]): 100 nM

Structure (SMILES): O=C1Nc2ccc(Br)cc2/C1=C/c1cc(O)c(O)c(Br)c1 [compound 3]
- Kd (MBP-ATXN3-Q68 [9]): 1020 nM
- binding to MBP-ATXN3-Q28 (MBP-ATXN3-Q28 [10]): did not bind
- binding to MBP-ATXN3-Q68 (MBP-ATXN3-Q68 [11]): binded
- binding affinity to proteins with 38 or more glutamine repeats [12]: showed certain binding affinity
- mutant ATXN3 protein level [2]: A decrease in mutant ATXN3 protein level was observed
- level of proteins containing expanded polyglutamine in cells (polyQ-GFP) [13]: can selectively reduce the level
- level of mutant ATXN1 protein (His-ATXN1-Q92) [3]: Decreased levels of mutant ATXN1 were observed
- binding affinity to Q25-GFP (Q25-GFP [14]): no binding affinity
- binding to His-ATXN1-Q92 (His-ATXN1-Q92): can bind
- wild-type ATXN3 protein level [6]: no decrease in wild-type ATXN3 protein level was observed
- binding affinity with normal ATXN3 protein (MBP-ATXN3-Q28) (MBP-ATXN3-Q28 [15]): no binding affinity
- mHTT level in cortices (mHTT [16]): significantly reduced mHTT level
- binding to GFP (GFP): did not bind
- binding to Q25-GFP (Q25-GFP [17]): did not bind
